Data reported in PMC9797021 (ACS applied bio materials, 2022).

Assays:
[1] = tested on: SARS-CoV-2 spike protein, S1 subunit; type: binding; details: pH 7.4
SARS-CoV-2 RBD = details: cited from earlier work

ACE2
SPR angle shift of ACE2/spike protein binding [1]: 0.147±0.009 degrees

residues 21–43 of the human ACE2 α 1-helix
affinity compared with full-length ACE2 binding to RBD (SARS-CoV-2 RBD): comparable to that of the full-length ACE2 binding to RBD
